Test results as given in PubChem BioAssay (NCI).
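Growth conditions: 96-well plates. Treatment: test compound, 48 hours, 5 concentrations. Analysis: linear interpolation between bracketing concentrations; unreached endpoints set to highest concentration. Here, GI50 denotes the concentration required for 50% inhibition of growth. The concentration for full growth arrest is given as TGI.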

What was measured:
Test in all cases: NCI-60 cell line screen, 48 h
786-0 renal = system: 786-0 renal
A498 renal = system: A498 renal
ACHN renal = system: ACHN renal
BT-549 breast = system: BT-549 breast
CAKI-1 renal = system: CAKI-1 renal
CCRF-CEM leukemia = system: CCRF-CEM leukemia
COLO 205 colon = system: COLO 205 colon
DU-145 prostate = system: DU-145 prostate
EKVX NSCLC = system: EKVX NSCLC
HCC-2998 colon = system: HCC-2998 colon
HCT-116 colon = system: HCT-116 colon
HCT-15 colon = system: HCT-15 colon
HL-60(TB) leukemia = system: HL-60(TB) leukemia
HOP-62 NSCLC = system: HOP-62 NSCLC
HS 578T breast = system: HS 578T breast
HT29 colon = system: HT29 colon
IGROV1 ovarian = system: IGROV1 ovarian
K-562 leukemia = system: K-562 leukemia
KM12 colon = system: KM12 colon
LOX IMVI melanoma = system: LOX IMVI melanoma
M14 melanoma = system: M14 melanoma
MALME-3M melanoma = system: MALME-3M melanoma
MCF7 breast = system: MCF7 breast
MDA-MB-231 breast = system: MDA-MB-231 breast
MDA-MB-435 = system: MDA-MB-435
MDA-MB-468 breast = system: MDA-MB-468 breast
MOLT-4 leukemia = system: MOLT-4 leukemia
NCI-H226 lung = system: NCI-H226 lung
NCI-H23 lung = system: NCI-H23 lung
NCI-H460 lung = system: NCI-H460 lung
NCI-H522 lung = system: NCI-H522 lung
NCI/ADR-RES ovarian = system: NCI/ADR-RES ovarian
OVCAR-3 ovarian = system: OVCAR-3 ovarian
OVCAR-4 ovarian = system: OVCAR-4 ovarian
OVCAR-5 ovarian = system: OVCAR-5 ovarian
OVCAR-8 ovarian = system: OVCAR-8 ovarian
PC-3 prostate = system: PC-3 prostate
RPMI-8226 leukemia = system: RPMI-8226 leukemia
RXF 393 renal = system: RXF 393 renal
SF-268 CNS = system: SF-268 CNS
SF-295 CNS = system: SF-295 CNS
SF-539 CNS = system: SF-539 CNS
SK-MEL-2 melanoma = system: SK-MEL-2 melanoma
SK-MEL-28 melanoma = system: SK-MEL-28 melanoma
SK-MEL-5 melanoma = system: SK-MEL-5 melanoma
SK-OV-3 ovarian = system: SK-OV-3 ovarian
SN12C renal = system: SN12C renal
SNB-19 CNS = system: SNB-19 CNS
SR leukemia = system: SR leukemia
SW-620 colon = system: SW-620 colon
T-47D breast = system: T-47D breast
TK-10 renal = system: TK-10 renal
U251 CNS = system: U251 CNS
UACC-257 melanoma = system: UACC-257 melanoma
UACC-62 melanoma = system: UACC-62 melanoma
UO-31 renal = system: UO-31 renal

`CN1CCN(c2ccc(C(=O)/C=C/c3cc(C(F)(F)F)cc(C(F)(F)F)c3)cc2)CC1` showed a GI50 (786-0 renal) of 1680 nM, a TGI (786-0 renal) of 3110 nM and a GI50 (A498 renal) of 17900 nM. For the same compound, the TGI (A498 renal) was 35600 nM, the GI50 (ACHN renal) was 1490 nM and the TGI (ACHN renal) was 2820 nM. The GI50 (BT-549 breast) was 1330 nM, the TGI (BT-549 breast) was 2660 nM and the GI50 (CAKI-1 renal) was 1660 nM. It also gave a TGI (CAKI-1 renal) of 3260 nM, a GI50 (CCRF-CEM leukemia) of 2380 nM and a TGI (CCRF-CEM leukemia) of 5870 nM. It also gave a GI50 (COLO 205 colon) of 2030 nM, a TGI (COLO 205 colon) of 3870 nM and a GI50 (DU-145 prostate) of 1630 nM. For the same compound, the TGI (DU-145 prostate) was 3040 nM, the GI50 (EKVX NSCLC) was 1870 nM and the TGI (EKVX NSCLC) was 3410 nM. It also gave a GI50 (HCC-2998 colon) of 1390 nM, a TGI (HCC-2998 colon) of 2680 nM and a GI50 (HCT-116 colon) of 1150 nM. It also gave a TGI (HCT-116 colon) of 2450 nM, a GI50 (HCT-15 colon) of 1120 nM and a TGI (HCT-15 colon) of 2390 nM. The GI50 (HL-60(TB) leukemia) was 1040 nM, the TGI (HL-60(TB) leukemia) was 2790 nM and the GI50 (HOP-62 NSCLC) was 1860 nM. For the same compound, the TGI (HOP-62 NSCLC) was 3750 nM, the GI50 (HS 578T breast) was 4880 nM and the TGI (HS 578T breast) was 34700 nM. The GI50 (HT29 colon) was 1620 nM, the TGI (HT29 colon) was 3410 nM and the GI50 (IGROV1 ovarian) was 1650 nM. For the same compound, the TGI (IGROV1 ovarian) was 3150 nM, the GI50 (K-562 leukemia) was 1070 nM and the TGI (K-562 leukemia) was 6370 nM. It also gave a GI50 (KM12 colon) of 1760 nM, a TGI (KM12 colon) of 3820 nM and a GI50 (LOX IMVI melanoma) of 1350 nM. For the same compound, the TGI (LOX IMVI melanoma) was 2630 nM, the GI50 (M14 melanoma) was 1520 nM and the TGI (M14 melanoma) was 2970 nM. The GI50 (MALME-3M melanoma) was 1660 nM, the TGI (MALME-3M melanoma) was 3070 nM and the GI50 (MCF7 breast) was 1200 nM. For the same compound, the TGI (MCF7 breast) was 2560 nM, the GI50 (MDA-MB-231 breast) was 1750 nM and the TGI (MDA-MB-231 breast) was 3350 nM. It also gave a GI50 (MDA-MB-435) of 1600 nM, a TGI (MDA-MB-435) of 3070 nM and a GI50 (MDA-MB-468 breast) of 1240 nM. It also gave a TGI (MDA-MB-468 breast) of 2560 nM, a GI50 (MOLT-4 leukemia) of 1420 nM and a TGI (MOLT-4 leukemia) of 5010 nM. It also gave a GI50 (NCI-H226 lung) of 1490 nM, a TGI (NCI-H226 lung) of 3200 nM and a GI50 (NCI-H23 lung) of 1510 nM. The TGI (NCI-H23 lung) was 2970 nM, the GI50 (NCI-H460 lung) was 2890 nM and the TGI (NCI-H460 lung) was over 100000 nM. For the same compound, the GI50 (NCI-H522 lung) was 1400 nM, the TGI (NCI-H522 lung) was 2970 nM and the GI50 (NCI/ADR-RES ovarian) was 1640 nM. The TGI (NCI/ADR-RES ovarian) was 3640 nM, the GI50 (OVCAR-3 ovarian) was 1450 nM and the TGI (OVCAR-3 ovarian) was 2940 nM. The GI50 (OVCAR-4 ovarian) was 1520 nM, the TGI (OVCAR-4 ovarian) was 3490 nM and the GI50 (OVCAR-5 ovarian) was 1680 nM. It also gave a TGI (OVCAR-5 ovarian) of 3200 nM, a GI50 (OVCAR-8 ovarian) of 1730 nM and a TGI (OVCAR-8 ovarian) of 4360 nM. For the same compound, the GI50 (PC-3 prostate) was 1640 nM, the TGI (PC-3 prostate) was 3320 nM and the GI50 (RPMI-8226 leukemia) was 1440 nM. It also gave a TGI (RPMI-8226 leukemia) of 3800 nM, a GI50 (RXF 393 renal) of 1190 nM and a TGI (RXF 393 renal) of 2570 nM. For the same compound, the GI50 (SF-268 CNS) was 1820 nM, the TGI (SF-268 CNS) was 3710 nM and the GI50 (SF-295 CNS) was 1470 nM. The TGI (SF-295 CNS) was 2820 nM, the GI50 (SF-539 CNS) was 1640 nM and the TGI (SF-539 CNS) was 3000 nM. It also gave a GI50 (SK-MEL-2 melanoma) of 1730 nM, a TGI (SK-MEL-2 melanoma) of 3230 nM and a GI50 (SK-MEL-28 melanoma) of 1680 nM. It also gave a TGI (SK-MEL-28 melanoma) of 3050 nM, a GI50 (SK-MEL-5 melanoma) of 1550 nM and a TGI (SK-MEL-5 melanoma) of 2900 nM. It also gave a GI50 (SK-OV-3 ovarian) of 2600 nM, a TGI (SK-OV-3 ovarian) of 6120 nM and a GI50 (SN12C renal) of 1300 nM. For the same compound, the TGI (SN12C renal) was 2590 nM, the GI50 (SNB-19 CNS) was 1730 nM and the TGI (SNB-19 CNS) was 3100 nM. It also gave a GI50 (SR leukemia) of 1170 nM, a TGI (SR leukemia) of 3930 nM and a GI50 (SW-620 colon) of 1810 nM. The TGI (SW-620 colon) was 4510 nM, the GI50 (T-47D breast) was 1270 nM and the TGI (T-47D breast) was 3100 nM. For the same compound, the GI50 (TK-10 renal) was 2000 nM, the TGI (TK-10 renal) was 3450 nM and the GI50 (U251 CNS) was 1660 nM. It also gave a TGI (U251 CNS) of 3180 nM, a GI50 (UACC-257 melanoma) of 1730 nM and a TGI (UACC-257 melanoma) of 3580 nM. For the same compound, the GI50 (UACC-62 melanoma) was 1500 nM, the TGI (UACC-62 melanoma) was 2860 nM and the GI50 (UO-31 renal) was 1460 nM. It also gave a TGI (UO-31 renal) of 2780 nM.
